Measured values published in patent publication US20190352288A1, “MATRIX METALLOPROTEINASE (MMP) INHIBITORS AND METHODS OF USE THEREOF” (Foresee Pharmaceuticals Co., Ltd., priority 2018, published 2019).
pIC50: −log10 of the molar value.

Columns and labels:
Type in all cases: biochemical
Settings in all cases: Table 2 selectivity profile
recombinant human MMP-2 = molecular target: T1, recombinant human MMP-2 (Homo sapiens, UniProt P08253); experiment: MMP selectivity assay, MMP-2
T1 sequence (P08253 110-660): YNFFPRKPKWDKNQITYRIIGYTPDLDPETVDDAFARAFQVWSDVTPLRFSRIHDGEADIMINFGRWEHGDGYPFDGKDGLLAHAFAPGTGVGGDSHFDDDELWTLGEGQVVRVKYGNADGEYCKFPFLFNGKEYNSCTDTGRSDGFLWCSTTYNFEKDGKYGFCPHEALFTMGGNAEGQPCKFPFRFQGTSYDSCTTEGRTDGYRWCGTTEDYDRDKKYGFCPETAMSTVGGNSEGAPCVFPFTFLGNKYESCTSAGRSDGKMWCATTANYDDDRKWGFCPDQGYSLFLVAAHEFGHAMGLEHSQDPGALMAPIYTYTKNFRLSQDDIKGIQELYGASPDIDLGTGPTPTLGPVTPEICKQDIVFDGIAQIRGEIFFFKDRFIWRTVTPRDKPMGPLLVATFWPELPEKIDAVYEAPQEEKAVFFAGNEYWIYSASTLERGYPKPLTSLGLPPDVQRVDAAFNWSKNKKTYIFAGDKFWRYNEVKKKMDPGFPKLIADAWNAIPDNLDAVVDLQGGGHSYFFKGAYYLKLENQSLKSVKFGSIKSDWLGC
Experimental: (§1) The inhibitory effect of compounds on the rate of cleaving fluorogenic MMP substrate (Enzo, BML-P128) by recombinant human MMP-12 catalytic domain (Enzo, BML-SE138) was carried out by methods known in the art. Briefly, to each well of a 96-well black opaque plate, all the reagents were sequentially added by pipetting, and the final reaction contained 4 nM of recombinant human MMP-12 catalytic domain, 4 μM of fluorogenic MMP substrate, and various concentrations (0.15 nM to 10,000 nM) of tested compound dilutions in HEPES buffer (pH 7.5) containing 10 mM of CaCl2), 0.01% Brij® 35 (polyoxyethylene (23) lauryl ether), and 0.1 mg/ml of BSA.
(§2) The enzyme and compounds were pre-incubated on a shaker to mix in wells. After an hour of mixing, fluorogenic substrate was added to each well. Reaction without enzyme was used as a blank control in the plate. The plate was then fed into a plate reader to measure fluorescence intensity at Excitation/Emission wavelengths of 340 nm/440 nm every 10 mins for at least 1 hour at 37° C. The IC50 of each compound in MMP-12 inhibition was determined by using a readout obtained at time point 30 minutes.
(§3) The MMP selectivity assay was performed by using other recombinant human MMPs, including MMP-1, MMP-2, MMP-3, MMP-7, MMP-8, MMP-9, MMP-10, MMP-13, and MMP-14. The IC50 of the compounds for the other recombinant human MMPs was determined as described above in Example 1, and are shown in Table 2.

recombinant human MMP-7 = molecular target: T2, recombinant human MMP-7 (Homo sapiens, UniProt P09237); experiment: MMP selectivity assay, MMP-7
T2 sequence (P09237 95-267): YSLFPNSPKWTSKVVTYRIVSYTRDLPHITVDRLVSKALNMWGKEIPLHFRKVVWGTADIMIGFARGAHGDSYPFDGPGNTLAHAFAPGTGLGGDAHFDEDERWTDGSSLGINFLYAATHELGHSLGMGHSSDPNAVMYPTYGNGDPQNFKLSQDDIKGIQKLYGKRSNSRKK
Experimental: as §1, §2, §3

recombinant human MMP-10 = recombinant human MMP-10 (Homo sapiens, UniProt P09238); experiment: MMP selectivity assay, MMP-10
Experimental: as §1, §2, §3

recombinant human MMP-13 = recombinant human MMP-13 (Homo sapiens, UniProt P45452); experiment: MMP selectivity assay, MMP-13
Experimental: as §1, §2, §3

recombinant human MMP-1 = molecular target: T3, recombinant human MMP-1 (Homo sapiens, UniProt P03956); experiment: MMP selectivity assay, MMP-1
T3 sequence (P03956 100-469): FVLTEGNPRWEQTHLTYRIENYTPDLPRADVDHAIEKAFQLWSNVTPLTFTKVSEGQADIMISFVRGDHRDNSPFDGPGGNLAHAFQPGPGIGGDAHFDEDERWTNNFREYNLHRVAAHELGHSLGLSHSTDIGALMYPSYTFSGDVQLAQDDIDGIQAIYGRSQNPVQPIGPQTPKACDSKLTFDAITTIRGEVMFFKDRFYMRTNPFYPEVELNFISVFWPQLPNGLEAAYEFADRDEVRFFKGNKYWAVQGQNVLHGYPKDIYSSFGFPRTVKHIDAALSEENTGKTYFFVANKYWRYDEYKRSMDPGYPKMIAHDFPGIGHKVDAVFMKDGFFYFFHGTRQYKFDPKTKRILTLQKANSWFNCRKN
Experimental: as §1, §2, §3

recombinant human MMP-14 = recombinant human MMP-14 (Homo sapiens, UniProt P50281); experiment: MMP selectivity assay, MMP-14
Experimental: as §1, §2, §3

recombinant human MMP-8 = recombinant human MMP-8 (Homo sapiens, UniProt P22894); experiment: MMP selectivity assay, MMP-8
Experimental: as §1, §2, §3

recombinant human MMP-9 = recombinant human MMP-9 (Homo sapiens, UniProt P14780); experiment: MMP selectivity assay, MMP-9
Experimental: as §1, §2, §3

recombinant human MMP-3 = recombinant human MMP-3 (Homo sapiens, UniProt P08254); experiment: MMP selectivity assay, MMP-3
Experimental: as §1, §2, §3

Chain of recombinant human MMP-10 (P09238 99-476): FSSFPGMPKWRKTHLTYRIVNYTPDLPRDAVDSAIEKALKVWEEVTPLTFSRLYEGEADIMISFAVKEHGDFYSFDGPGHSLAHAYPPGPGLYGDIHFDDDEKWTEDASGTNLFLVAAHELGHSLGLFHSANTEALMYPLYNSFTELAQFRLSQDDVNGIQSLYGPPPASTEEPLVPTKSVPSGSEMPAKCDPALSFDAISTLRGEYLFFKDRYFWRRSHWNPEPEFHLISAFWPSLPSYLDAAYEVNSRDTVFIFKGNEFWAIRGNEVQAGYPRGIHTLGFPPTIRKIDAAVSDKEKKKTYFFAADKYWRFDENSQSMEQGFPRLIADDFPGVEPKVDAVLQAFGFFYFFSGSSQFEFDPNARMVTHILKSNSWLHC
Chain of recombinant human MMP-3 (P08254 100-477): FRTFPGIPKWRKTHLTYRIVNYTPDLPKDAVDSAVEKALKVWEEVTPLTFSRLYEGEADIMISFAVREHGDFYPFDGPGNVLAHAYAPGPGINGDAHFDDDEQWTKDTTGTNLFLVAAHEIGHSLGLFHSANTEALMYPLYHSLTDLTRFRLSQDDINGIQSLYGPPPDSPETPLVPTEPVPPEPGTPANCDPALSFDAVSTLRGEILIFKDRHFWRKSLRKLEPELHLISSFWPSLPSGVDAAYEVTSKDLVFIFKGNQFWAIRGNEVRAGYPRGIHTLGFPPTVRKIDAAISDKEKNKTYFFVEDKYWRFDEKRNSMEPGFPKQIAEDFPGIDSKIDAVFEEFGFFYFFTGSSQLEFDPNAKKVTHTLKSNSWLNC
Chain of recombinant human MMP-8 (P22894 101-467): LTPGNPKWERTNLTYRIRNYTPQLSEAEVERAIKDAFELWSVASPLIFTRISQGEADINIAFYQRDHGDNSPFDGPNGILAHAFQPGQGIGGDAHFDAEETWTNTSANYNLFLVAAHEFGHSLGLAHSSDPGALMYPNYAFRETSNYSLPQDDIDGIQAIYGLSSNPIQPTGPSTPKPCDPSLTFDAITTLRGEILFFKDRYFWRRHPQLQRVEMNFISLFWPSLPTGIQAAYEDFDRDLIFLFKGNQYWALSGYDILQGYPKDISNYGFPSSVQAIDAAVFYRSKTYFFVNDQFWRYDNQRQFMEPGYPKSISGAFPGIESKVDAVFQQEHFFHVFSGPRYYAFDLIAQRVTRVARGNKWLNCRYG
Chain of recombinant human MMP-9 (P14780 94-707): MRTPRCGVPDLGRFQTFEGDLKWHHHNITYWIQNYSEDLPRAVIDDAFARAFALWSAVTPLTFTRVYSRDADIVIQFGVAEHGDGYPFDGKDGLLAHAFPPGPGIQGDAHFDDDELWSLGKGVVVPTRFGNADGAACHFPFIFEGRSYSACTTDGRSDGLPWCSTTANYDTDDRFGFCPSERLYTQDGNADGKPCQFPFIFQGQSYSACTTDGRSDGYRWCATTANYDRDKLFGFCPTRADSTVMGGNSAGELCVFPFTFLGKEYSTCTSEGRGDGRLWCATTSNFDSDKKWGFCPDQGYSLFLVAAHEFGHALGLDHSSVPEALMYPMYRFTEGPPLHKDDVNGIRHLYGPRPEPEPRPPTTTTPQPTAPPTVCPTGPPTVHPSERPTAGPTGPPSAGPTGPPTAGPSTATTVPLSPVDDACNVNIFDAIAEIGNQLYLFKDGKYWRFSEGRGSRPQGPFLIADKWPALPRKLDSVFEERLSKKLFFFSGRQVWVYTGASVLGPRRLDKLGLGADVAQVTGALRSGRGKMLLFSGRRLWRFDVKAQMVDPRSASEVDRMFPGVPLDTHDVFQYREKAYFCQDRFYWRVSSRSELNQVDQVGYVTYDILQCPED

Row | SMILES | pIC50 (recombinant human MMP-2) | pIC50 (recombinant human MMP-7) | pIC50 (recombinant human MMP-10) | pIC50 (recombinant human MMP-13) | pIC50 (recombinant human MMP-1) | pIC50 (recombinant human MMP-14) | pIC50 (recombinant human MMP-8) | pIC50 (recombinant human MMP-9) | pIC50 (recombinant human MMP-3)
1 | Cc1cc(COc2ccc(Sc3ccncc3C3NC(=O)NC3=O)c(Cl)c2)ccn1 (stereo not drawn) [PC-51] | 5.00 to 6.00 | 5.00 to 6.00 | 5.00 to 6.00 | 6.00 to 7.00 | < 5.00 | 5.00 to 6.00 | 6.00 to 7.00 | 5.00 to 6.00 | 5.00 to 6.00
2 | Cc1cc(COc2ccc(Sc3cnn(C)c3C3NC(=O)NC3=O)cc2)ccn1 (stereo not drawn) [OC-12] | 6.00 to 7.00 | < 5.00 | 5.00 to 6.00 | 6.00 to 7.00 | < 5.00 | 5.00 to 6.00 | 6.00 to 7.00 | 5.00 to 6.00 | 5.00 to 6.00
3 | O=C1NC(=O)C(c2ccncc2Sc2ccc(OCc3ccccc3CO)cc2)N1 (stereo not drawn) [PC-12] | 5.00 to 6.00 | < 5.00 | 5.00 to 6.00 | < 5.00 | < 5.00 | < 5.00 | 5.00 to 6.00 | 5.00 to 6.00 | 6.00 to 7.00
4 | Cc1cc(COc2ccc(Sc3ccncc3C3NC(=O)NC3=O)c(F)c2)ccn1 (stereo not drawn) [PC-50] | 6.00 to 7.00 | < 5.00 | 5.00 to 6.00 | 6.00 to 7.00 | < 5.00 | 5.00 to 6.00 | 6.00 to 7.00 | 5.00 to 6.00 | 6.00 to 7.00
5 | Cc1cc(COc2ccc(Sc3ncoc3C3NC(=O)NC3=O)cc2)ccn1 (stereo not drawn) [OC-7] | 6.00 to 7.00 | < 5.00 | 5.00 to 6.00 | 6.00 to 7.00 | < 5.00 | < 5.00 | 6.00 to 7.00 | 5.00 to 6.00 | 5.00 to 6.00
6 | NC(=O)c1cccc(COc2ccc(Sc3ccncc3C3NC(=O)NC3=O)cc2)c1 (stereo not drawn) [PC-28] | 5.00 to 6.00 | < 5.00 | 5.00 to 6.00 | 6.00 to 7.00 | < 5.00 | 5.00 to 6.00 | 6.00 to 7.00 | 5.00 to 6.00 | 5.00 to 6.00
7 | O=C1NC(=O)C(c2ccncc2Sc2ccc(OCc3cccc(CO)c3)cc2)N1 (stereo not drawn) [PC-13] | 5.00 to 6.00 | < 5.00 | 5.00 to 6.00 | 5.00 to 6.00 | < 5.00 | < 5.00 | 5.00 to 6.00 | 5.00 to 6.00 | 6.00 to 7.00
8 | O=C1NC(=O)C(c2sccc2Sc2ccc(OCc3ccccc3CO)cc2)N1 (stereo not drawn) [TC5] | 5.00 to 6.00 | < 5.00 | 5.00 to 6.00 | < 5.00 | < 5.00 | < 5.00 | 5.00 to 6.00 | 5.00 to 6.00 | 5.00 to 6.00
9 | CCC1(c2cnccc2Sc2ccc(OCc3cccc(C)c3)cc2)NC(=O)NC1=O (stereo not drawn) [PC-22] | 5.00 to 6.00 | < 5.00 | 5.00 to 6.00 | 6.00 to 7.00 | < 5.00 | 5.00 to 6.00 | 5.00 to 6.00 | 5.00 to 6.00 | 6.00 to 7.00
10 | O=C1NC(=O)C(c2cnccc2Sc2ccc(OCc3cccc(CO)c3)cc2)N1 (stereo not drawn) [PC-8] | 5.00 to 6.00 | < 5.00 | < 5.00 | 5.00 to 6.00 | < 5.00 | < 5.00 | < 5.00 | < 5.00 | 5.00 to 6.00

Other lines, results leading:

Row | pIC50 (recombinant human MMP-2) | pIC50 (recombinant human MMP-7) | pIC50 (recombinant human MMP-10) | pIC50 (recombinant human MMP-13) | pIC50 (recombinant human MMP-1) | pIC50 (recombinant human MMP-14) | pIC50 (recombinant human MMP-8) | pIC50 (recombinant human MMP-9) | pIC50 (recombinant human MMP-3) | SMILES
11 | 6.00 to 7.00 | 5.00 to 6.00 | 6.00 to 7.00 | 7.00 to 8.00 | < 5.00 | 6.00 to 7.00 | 7.00 to 8.00 | 6.00 to 7.00 | 6.00 to 7.00 | Cc1cc(COc2ccc(Sc3ccsc3C3NC(=O)NC3=O)cc2)ccn1 (stereo not drawn) [TC8]
12 | 5.00 to 6.00 | < 5.00 | 5.00 to 6.00 | 5.00 to 6.00 | < 5.00 | 5.00 to 6.00 | 6.00 to 7.00 | 5.00 to 6.00 | 6.00 to 7.00 | O=C1NC(=O)C(c2sccc2Sc2ccc(OCc3cccc(CO)c3)cc2)N1 (stereo not drawn) [TC4]
